Reference: the supplement of paper PMC12370961

Legend:
Experiment in all cases: differential drug sensitivity score (dDSS) relative to sarcoma reference cohort mean DSS (DSS units (0-100 scale difference)); higher = more selective sensitivity than reference sarcomas
Conditions in all cases: exposure time: 72 h; concentration range: 10-10000 nM
CDS-ZH001 = system: CDS-ZH001 (patient-derived CIC-DUX4 sarcoma tumoroid)
Description: (§1)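 Drug response profiling of patient-derived Ewing sarcoma and CIC::DUX4 sarcoma tumoroid models (or cells tested directly after isolation from the tumor, 'direct'). The DSS is the normalised AUC (0-100); dDSS is the sample DSS minus the mean DSS of a 34-sarcoma reference cohort profiled in the same lab.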

ES-ZH008 = system: ES-ZH008 (patient-derived Ewing sarcoma tumoroid)
Description: as §1

CDS-ZH003 = system: CDS-ZH003 (patient-derived CIC-DUX4 sarcoma tumoroid)
Description: as §1

CDS-ZH002 = system: CDS-ZH002 (patient-derived CIC-DUX4 sarcoma tumoroid)
Description: as §1

ES-ZH002 = system: ES-ZH002 (patient-derived Ewing sarcoma tumoroid)
Description: as §1

ES-ZH016 direct = system: ES-ZH016 direct (Ewing sarcoma cells right after isolation)
Description: as §1

CDS-ZH002 direct = system: CDS-ZH002 direct (CIC-DUX4 sarcoma cells right after isolation)
Description: as §1

ES-ZH001 = system: ES-ZH001 (patient-derived Ewing sarcoma tumoroid)
Description: as §1

ES-ZH016 = system: ES-ZH016 (patient-derived Ewing sarcoma tumoroid)
Description: as §1

ES-ZH007 = system: ES-ZH007 (patient-derived Ewing sarcoma tumoroid)
Description: as §1

CDS-ZH001-2 = system: CDS-ZH001-2 (patient-derived CIC-DUX4 sarcoma tumoroid)
Description: as §1

ES-ZH009 = system: ES-ZH009 (patient-derived Ewing sarcoma tumoroid)
Description: as §1

ES-ZH004 = system: ES-ZH004 (patient-derived Ewing sarcoma tumoroid)
Description: as §1

SMILES: CCN(CC)Cc1ccc2cc(COC(=O)Nc3ccc(C(=O)NO)cc3)ccc2c1 [Givinostat]
- differential drug sensitivity score (CDS-ZH001): -0.7
- differential drug sensitivity score (ES-ZH008): 5.9
- differential drug sensitivity score (CDS-ZH003): -3.4
- differential drug sensitivity score (CDS-ZH002): -0.9
- differential drug sensitivity score (ES-ZH002): 5.5
- differential drug sensitivity score (ES-ZH016 direct): 3.3
- differential drug sensitivity score (CDS-ZH002 direct): 1.5
- differential drug sensitivity score (ES-ZH001): 1.9
- differential drug sensitivity score (ES-ZH016): 3.9
- differential drug sensitivity score (ES-ZH007): 3.7
- differential drug sensitivity score (CDS-ZH001-2): 2.7
- differential drug sensitivity score (ES-ZH009): 6.8
- differential drug sensitivity score (ES-ZH004): 4.2

SMILES: O=c1[nH]c2ccccc2n1C1CCN(CCCC(c2ccc(F)cc2)c2ccc(F)cc2)CC1 [Pimozide]
- differential drug sensitivity score (CDS-ZH001): 3.4
- differential drug sensitivity score (ES-ZH008): -3.6
- differential drug sensitivity score (CDS-ZH003): 5.1
- differential drug sensitivity score (CDS-ZH002): 0.9
- differential drug sensitivity score (ES-ZH002): -2.4
- differential drug sensitivity score (ES-ZH016 direct): 7.3
- differential drug sensitivity score (CDS-ZH002 direct): -2.1
- differential drug sensitivity score (ES-ZH001): -4.3
- differential drug sensitivity score (ES-ZH016): 5.5
- differential drug sensitivity score (ES-ZH007): -2.3
- differential drug sensitivity score (CDS-ZH001-2): 6.3
- differential drug sensitivity score (ES-ZH009): 7.1
- differential drug sensitivity score (ES-ZH004): -3.1

SMILES: Cc1ccc(Nc2nccc(N(C)c3ccc4c(C)n(C)nc4c3)n2)cc1S(N)(=O)=O [Pazopanib]
- differential drug sensitivity score (CDS-ZH001): -2.9
- differential drug sensitivity score (ES-ZH008): -2.9
- differential drug sensitivity score (CDS-ZH003): 0.4
- differential drug sensitivity score (CDS-ZH002): 0.6
- differential drug sensitivity score (ES-ZH002): -2.9
- differential drug sensitivity score (ES-ZH016 direct): 17.4
- differential drug sensitivity score (CDS-ZH002 direct): -1.4
- differential drug sensitivity score (ES-ZH001): -2.9
- differential drug sensitivity score (ES-ZH016): -0.7
- differential drug sensitivity score (ES-ZH007): -2.9
- differential drug sensitivity score (CDS-ZH001-2): 14.6
- differential drug sensitivity score (ES-ZH009): -2.9
- differential drug sensitivity score (ES-ZH004): -2.9

SMILES: COCC[n+]1c2c(n(Cc3cnccn3)c1C)C(=O)c1ccccc1C2=O [YM155]
- differential drug sensitivity score (CDS-ZH001): -2
- differential drug sensitivity score (ES-ZH008): 6.8
- differential drug sensitivity score (CDS-ZH003): 9.6
- differential drug sensitivity score (CDS-ZH002): -4.4
- differential drug sensitivity score (ES-ZH002): 9.6
- differential drug sensitivity score (ES-ZH016 direct): 2.3
- differential drug sensitivity score (CDS-ZH002 direct): -0.4
- differential drug sensitivity score (ES-ZH001): 5.7
- differential drug sensitivity score (ES-ZH016): 10.2
- differential drug sensitivity score (ES-ZH007): 10.1
- differential drug sensitivity score (CDS-ZH001-2): 2.5
- differential drug sensitivity score (ES-ZH009): 9.3
- differential drug sensitivity score (ES-ZH004): 9.9

SMILES: C[C@@H]1COCCN1c1cc(-c2ccnn2C)c2ccnc(-c3ccn[nH]3)c2n1 [Elimusertib]
- differential drug sensitivity score (CDS-ZH001): 7.3
- differential drug sensitivity score (ES-ZH008): 11.6
- differential drug sensitivity score (CDS-ZH003): 7.8
- differential drug sensitivity score (CDS-ZH002): 0.9
- differential drug sensitivity score (ES-ZH002): 10.8
- differential drug sensitivity score (ES-ZH016 direct): 12.4
- differential drug sensitivity score (CDS-ZH002 direct): -5.1
- differential drug sensitivity score (ES-ZH001): 7
- differential drug sensitivity score (ES-ZH016): 6.4
- differential drug sensitivity score (ES-ZH007): 10.1
- differential drug sensitivity score (CDS-ZH001-2): 11.3
- differential drug sensitivity score (ES-ZH009): 10.9
- differential drug sensitivity score (ES-ZH004): 9.6

SMILES: CCc1cc2c(cc1N1CCC(N3CCOCC3)CC1)C(C)(C)c1[nH]c3cc(C#N)ccc3c1C2=O [Alectinib]
- differential drug sensitivity score (CDS-ZH001): -1.2
- differential drug sensitivity score (ES-ZH008): -0.7
- differential drug sensitivity score (CDS-ZH003): 2.4
- differential drug sensitivity score (CDS-ZH002): -1.3
- differential drug sensitivity score (ES-ZH002): 4.6
- differential drug sensitivity score (ES-ZH016 direct): -1.3
- differential drug sensitivity score (CDS-ZH002 direct): -0.8
- differential drug sensitivity score (ES-ZH001): -0.5
- differential drug sensitivity score (ES-ZH016): -1.3
- differential drug sensitivity score (ES-ZH007): -1.3
- differential drug sensitivity score (CDS-ZH001-2): -1.3
- differential drug sensitivity score (ES-ZH009): -1.3
- differential drug sensitivity score (ES-ZH004): -1.3

SMILES: Cc1cnc(NC(=O)Nc2cc(Br)c(C)cc2OC[C@@H]2CNCCO2)cn1 [Rabusertib]
- differential drug sensitivity score (CDS-ZH001): 8.8
- differential drug sensitivity score (ES-ZH008): 12.5
- differential drug sensitivity score (CDS-ZH003): -4.9
- differential drug sensitivity score (CDS-ZH002): 1.8
- differential drug sensitivity score (ES-ZH002): 10.7
- differential drug sensitivity score (ES-ZH016 direct): 5.6
- differential drug sensitivity score (CDS-ZH002 direct): 2.4
- differential drug sensitivity score (ES-ZH001): 6
- differential drug sensitivity score (ES-ZH016): 8.7
- differential drug sensitivity score (ES-ZH007): 8.8
- differential drug sensitivity score (CDS-ZH001-2): 7.2
- differential drug sensitivity score (ES-ZH009): 6.1
- differential drug sensitivity score (ES-ZH004): 1.2

SMILES: CCCN(CCC)C(=O)C1=Cc2ccc(-c3ccc(C(=O)N4CCCC4)cc3)cc2N=C(N)C1 [Motolimod]
- differential drug sensitivity score (CDS-ZH001): -2
- differential drug sensitivity score (ES-ZH008): 0.1
- differential drug sensitivity score (CDS-ZH003): -3.1
- differential drug sensitivity score (CDS-ZH002): -1.9
- differential drug sensitivity score (ES-ZH002): 1.9
- differential drug sensitivity score (ES-ZH016 direct): 0.4
- differential drug sensitivity score (CDS-ZH002 direct): 2.1
- differential drug sensitivity score (ES-ZH001): 1.9
- differential drug sensitivity score (ES-ZH016): 0.2
- differential drug sensitivity score (ES-ZH007): -2.9
- differential drug sensitivity score (CDS-ZH001-2): 4.9
- differential drug sensitivity score (ES-ZH009): -1.5
- differential drug sensitivity score (ES-ZH004): -3.1

SMILES: CC(C)c1cc(C(=O)N2Cc3ccc(CN4CCN(C)CC4)cc3C2)c(O)cc1O [Onalespib]
- differential drug sensitivity score (CDS-ZH001): -3.5
- differential drug sensitivity score (ES-ZH008): 7.7
- differential drug sensitivity score (CDS-ZH003): -1.5
- differential drug sensitivity score (CDS-ZH002): -6.3
- differential drug sensitivity score (ES-ZH002): 9.5
- differential drug sensitivity score (ES-ZH016 direct): 6.1
- differential drug sensitivity score (CDS-ZH002 direct): -2.7
- differential drug sensitivity score (ES-ZH001): 3.6
- differential drug sensitivity score (ES-ZH016): -3.1
- differential drug sensitivity score (ES-ZH007): -3
- differential drug sensitivity score (CDS-ZH001-2): 0.4
- differential drug sensitivity score (ES-ZH009): 4.9
- differential drug sensitivity score (ES-ZH004): -1.2

SMILES: C[C@@H](Oc1cc(-c2cnn(C3CCNCC3)c2)cnc1N)c1c(Cl)ccc(F)c1Cl [Crizotinib]
- differential drug sensitivity score (CDS-ZH001): 2.3
- differential drug sensitivity score (ES-ZH008): 1.2
- differential drug sensitivity score (CDS-ZH003): 1.6
- differential drug sensitivity score (CDS-ZH002): -0.9
- differential drug sensitivity score (ES-ZH002): 7.3
- differential drug sensitivity score (ES-ZH016 direct): 4
- differential drug sensitivity score (CDS-ZH002 direct): -3.4
- differential drug sensitivity score (ES-ZH001): 3.1
- differential drug sensitivity score (ES-ZH016): 0
- differential drug sensitivity score (ES-ZH007): 5.1
- differential drug sensitivity score (CDS-ZH001-2): 4.4
- differential drug sensitivity score (ES-ZH009): 0.5
- differential drug sensitivity score (ES-ZH004): -1.9

SMILES: CC(C)C[C@H](NC(=O)[C@@H](NC(=O)c1cccc(-c2ccccc2)n1)[C@@H](C)O)B(O)O [Delanzomib]
- differential drug sensitivity score (CDS-ZH001): 5.4
- differential drug sensitivity score (ES-ZH008): 5.7
- differential drug sensitivity score (CDS-ZH003): 1.1
- differential drug sensitivity score (CDS-ZH002): 1.2
- differential drug sensitivity score (ES-ZH002): 9.6
- differential drug sensitivity score (ES-ZH016 direct): 2.4
- differential drug sensitivity score (CDS-ZH002 direct): 6.7
- differential drug sensitivity score (ES-ZH001): 7.9
- differential drug sensitivity score (ES-ZH016): 0
- differential drug sensitivity score (ES-ZH007): 5.7
- differential drug sensitivity score (CDS-ZH001-2): 4.9
- differential drug sensitivity score (ES-ZH009): 5.8
- differential drug sensitivity score (ES-ZH004): 2.1

SMILES: C[C@]12C=CC(=O)C=C1CC[C@@H]1[C@@H]2C(=O)C[C@@]2(C)[C@H]1CC[C@]2(O)C(=O)CO [Prednisone]
- differential drug sensitivity score (CDS-ZH001): -0.5
- differential drug sensitivity score (ES-ZH008): -0.5
- differential drug sensitivity score (CDS-ZH003): -0.5
- differential drug sensitivity score (CDS-ZH002): -0.5
- differential drug sensitivity score (ES-ZH002): -0.5
- differential drug sensitivity score (ES-ZH016 direct): -0.5
- differential drug sensitivity score (CDS-ZH002 direct): -0.5
- differential drug sensitivity score (ES-ZH001): -0.5
- differential drug sensitivity score (ES-ZH016): -0.5
- differential drug sensitivity score (ES-ZH007): -0.5
- differential drug sensitivity score (CDS-ZH001-2): -0.5
- differential drug sensitivity score (ES-ZH009): -0.5
- differential drug sensitivity score (ES-ZH004): -0.5

SMILES: COc1ccc(-c2ccc3c(N4CCOC[C@@H]4C)nc(N4CCOC[C@@H]4C)nc3n2)cc1CO [AZD8055]
- differential drug sensitivity score (CDS-ZH001): 1.6
- differential drug sensitivity score (ES-ZH008): 7.6
- differential drug sensitivity score (CDS-ZH003): 8.6
- differential drug sensitivity score (CDS-ZH002): -10.9
- differential drug sensitivity score (ES-ZH002): 12.1
- differential drug sensitivity score (ES-ZH016 direct): -8.5
- differential drug sensitivity score (CDS-ZH002 direct): -2.1
- differential drug sensitivity score (ES-ZH001): 0.8
- differential drug sensitivity score (ES-ZH016): 2
- differential drug sensitivity score (ES-ZH007): 4.7
- differential drug sensitivity score (CDS-ZH001-2): 0.8
- differential drug sensitivity score (ES-ZH009): 9.6
- differential drug sensitivity score (ES-ZH004): 4.9

SMILES: c1cn2cc(-c3ccc4cn[nH]c4c3)nc(Nc3ccc(N4CCOCC4)cc3)c2n1 [Entospletinib]
- differential drug sensitivity score (CDS-ZH001): -2.1
- differential drug sensitivity score (ES-ZH008): -2.1
- differential drug sensitivity score (CDS-ZH003): 0
- differential drug sensitivity score (CDS-ZH002): 13.4
- differential drug sensitivity score (ES-ZH002): -2.1
- differential drug sensitivity score (ES-ZH016 direct): 13.1
- differential drug sensitivity score (CDS-ZH002 direct): -1.8
- differential drug sensitivity score (ES-ZH001): -2.1
- differential drug sensitivity score (ES-ZH016): -2.1
- differential drug sensitivity score (ES-ZH007): -2.1
- differential drug sensitivity score (CDS-ZH001-2): 10.6
- differential drug sensitivity score (ES-ZH009): -2.1
- differential drug sensitivity score (ES-ZH004): -2.1

SMILES: O=c1cc(N2CCOCC2)oc2c(-c3cccc4c3sc3ccccc34)cccc12 [NU7441]
- differential drug sensitivity score (CDS-ZH001): -4.3
- differential drug sensitivity score (ES-ZH008): -0.8
- differential drug sensitivity score (CDS-ZH003): -4.3
- differential drug sensitivity score (CDS-ZH002): -4
- differential drug sensitivity score (ES-ZH002): 8.5
- differential drug sensitivity score (ES-ZH016 direct): 1.1
- differential drug sensitivity score (CDS-ZH002 direct): 1.5
- differential drug sensitivity score (ES-ZH001): 0
- differential drug sensitivity score (ES-ZH016): -3.9
- differential drug sensitivity score (ES-ZH007): -4.3
- differential drug sensitivity score (CDS-ZH001-2): 1.9
- differential drug sensitivity score (ES-ZH009): 2.9
- differential drug sensitivity score (ES-ZH004): -1.9
